Laboratory results from the supplement of paper PMC10307832.

Experiments:
Assay in all cases: relative viability (nuclei count vs DMSO), 5 days (fraction); higher = more cells survive
[1] = compound: O=C(O)c1ccc2c(c1)nc(Nc1cccc(Cl)c1)c1ccncc12 [Silmitasertib] + O=C(CCCCCCC(=O)Nc1ccccc1)NO [Vorinostat] (partner 1 µM)
Procedure, shortened: (§1)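 After 5 days of treatment, lung cancer cells in 1536-well plates were fixed and stained in a single step (final 0.05% Triton X-100, 1% formaldehyde, 1 ug/ml Hoechst) and their nuclei counted on 4× images. Treatment had been applied by pin tool the day after seeding as one drug alone or as a fixed anchor-drug dose with five library-drug doses (not always all listed) in √10 steps. Relative viability is the nuclei count of treated wells divided by that of vehicle wells, and values are medians of duplicate plates.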

[2] = compound: O=C(O)c1ccc2c(c1)nc(Nc1cccc(Cl)c1)c1ccncc12 [Silmitasertib] + N=C(N)NC(=N)NCCc1ccccc1 [Phenformin] (partner 250 µM)
Procedure, shortened: as §1

[3] = compound: O=C(O)c1ccc2c(c1)nc(Nc1cccc(Cl)c1)c1ccncc12 [Silmitasertib] + CS(=O)(=O)N1CCN(Cc2cc3nc(-c4cccc5[nH]ncc45)nc(N4CCOCC4)c3s2)CC1 [Pictilisib] (partner 1 µM)
Procedure, shortened: as §1

[4] = compound: O=C(O)c1ccc2c(c1)nc(Nc1cccc(Cl)c1)c1ccncc12 [Silmitasertib] + Cc1nc(NC(=O)N2CCC[C@H]2C(N)=O)sc1-c1ccnc(C(C)(C)C(F)(F)F)c1 [Alpelisib] (partner 2 µM)
Procedure, shortened: as §1

[5] = compound: O=C(O)c1ccc2c(c1)nc(Nc1cccc(Cl)c1)c1ccncc12 [Silmitasertib] + Cc1cc(Nc2cc(N3CCN(C)CC3)nc(Sc3ccc(NC(=O)C4CC4)cc3)n2)n[nH]1 [Tozasertib] (partner 0.1 µM)
Procedure, shortened: as §1

Cell Line | relative viability ([1]; first compound 0.04 µM) | relative viability ([1]; first compound 0.4 µM) | relative viability ([1]; first compound 1.265 µM) | relative viability ([1]; first compound 4 µM) | relative viability ([2]; first compound 0.04 µM) | relative viability ([2]; first compound 0.4 µM) | relative viability ([2]; first compound 1.265 µM) | relative viability ([2]; first compound 4 µM) | relative viability ([3]; first compound 0.04 µM) | relative viability ([3]; first compound 0.4 µM) | relative viability ([3]; first compound 1.265 µM) | relative viability ([3]; first compound 4 µM) | relative viability ([4]; first compound 0.04 µM) | relative viability ([4]; first compound 0.4 µM) | relative viability ([4]; first compound 1.265 µM) | relative viability ([4]; first compound 4 µM) | relative viability ([5]; first compound 0.04 µM) | relative viability ([5]; first compound 0.4 µM) | relative viability ([5]; first compound 1.265 µM) | relative viability ([5]; first compound 4 µM)
201T | 1.09 | 0.949 | 1.02 | 0.837 | 0.421 | 0.426 | 0.469 | 0.449 | 0.739 | 0.665 | 0.68 | 0.694 | 0.908 | 1 | 1.01 | 1.13 | 0.955 | 0.818 | 1.04 | 1.05
A-427 | 0.87 | 0.761 | 0.954 | 0.568 | 0.365 | – | 0.297 | 0.156 | 0.858 | – | 0.521 | 0.238 | 1.07 | – | 1.28 | 1.05 | 0.19 | – | 0.132 | 0.15
ABC-1 | 1.22 | 0.733 | 0.642 | 0.553 | 0.298 | 0.214 | 0.179 | 0.201 | 1.12 | 0.561 | 0.303 | 0.345 | 1.11 | 0.832 | 0.546 | 0.381 | 0.19 | 0.165 | 0.185 | 0.193
BEN | 0.648 | 0.475 | 0.456 | 0.545 | 0.275 | – | 0.281 | 0.258 | 0.628 | 0.524 | 0.493 | 0.476 | 1.02 | 0.783 | 0.896 | 0.956 | 0.435 | 0.367 | 0.481 | 0.422
CAL-12T | 0.891 | 0.876 | 0.746 | 0.525 | 0.67 | 0.488 | 0.352 | 0.296 | 0.532 | 0.394 | 0.34 | 0.232 | 1.38 | 1.21 | 0.802 | 0.551 | 0.292 | 0.282 | 0.227 | 0.175
COR-L23 | 0.62 | 0.378 | 0.525 | 0.401 | 0.51 | 0.372 | 0.483 | 0.314 | 0.945 | 0.586 | 0.636 | 0.248 | 0.843 | 0.788 | 0.759 | 0.586 | 0.232 | 0.2 | 0.118 | 0.159
COR-L 105 | 0.843 | 0.901 | 0.688 | 0.663 | 0.476 | 0.458 | 0.408 | 0.307 | 0.463 | 0.377 | 0.46 | 0.419 | 1.16 | 1.06 | 0.803 | 0.664 | 0.394 | 0.349 | 0.389 | 0.326
ChaGo-K-1 | 0.786 | 0.574 | 0.62 | 0.539 | 0.532 | 0.349 | 0.446 | 0.319 | 1.26 | 0.59 | 0.607 | 0.486 | – | – | – | – | 0.198 | 0.219 | 0.231 | 0.241
EKVX | 0.951 | 0.464 | 0.541 | 0.584 | 0.22 | 0.167 | 0.185 | 0.203 | 0.491 | 0.356 | 0.373 | 0.383 | 1.01 | 0.628 | 0.739 | 0.656 | 0.434 | 0.25 | 0.295 | 0.405
EMC-BAC-2 | 0.595 | 0.455 | 0.287 | 0.169 | 0.578 | 0.493 | 0.381 | 0.301 | 0.568 | 0.472 | 0.371 | 0.325 | 0.743 | 0.627 | 0.558 | 0.547 | 0.291 | 0.272 | 0.198 | 0.162
EPLC-272H | 0.454 | 0.685 | 0.391 | 0.13 | 0.399 | – | 0.23 | 0.088 | 0.424 | – | 0.268 | 0.169 | 1.04 | – | 0.632 | 0.763 | 0.215 | – | 0.205 | 0.187
H3255 | 0.747 | 0.772 | 0.868 | 0.645 | 0.355 | 0.353 | 0.31 | 0.359 | 0.537 | 0.448 | 0.414 | 0.345 | 0.811 | 0.786 | 0.657 | 0.549 | 0.756 | 0.593 | 0.678 | 0.59
HARA | 0.627 | 0.301 | 0.464 | 0.416 | 0.439 | 0.253 | 0.448 | 0.162 | 0.603 | 0.41 | 0.334 | 0.257 | 1.08 | 0.64 | 0.565 | 0.545 | 0.107 | 0.0804 | 0.0797 | 0.0693
HCC-15 | 1.02 | 0.699 | 0.579 | 0.671 | 0.541 | 0.39 | 0.398 | 0.25 | 0.772 | 0.535 | 0.493 | 0.238 | 0.972 | 0.683 | 0.618 | 0.45 | 0.392 | 0.356 | 0.232 | 0.133
HCC-44 | 1.06 | 0.903 | 1.24 | 1.16 | 0.267 | 0.234 | 0.117 | 0.12 | 0.579 | 0.452 | 0.549 | 0.351 | 0.767 | 0.761 | 0.769 | 0.741 | 1.13 | 0.853 | 0.802 | 0.691
HCC-78 | 0.459 | 0.421 | 0.402 | 0.437 | 0.678 | 0.517 | 0.707 | 0.594 | 0.23 | 0.231 | 0.226 | 0.205 | 0.417 | 0.243 | 0.268 | 0.319 | 0.446 | 0.315 | 0.384 | 0.492
HCC-366 | 0.396 | 0.221 | 0.413 | 0.0566 | 0.698 | 0.42 | 0.6 | 0.24 | 0.138 | 0.137 | 0.0849 | 0.141 | 0.453 | – | 0.317 | 0.383 | 0.107 | 0.0962 | 0.0628 | 0.0717
